Patent US11274332B2, “Methods of administering 3,4-diaminopyridine” (SERB SA, priority 2011, dated 2022)

Assay: Food-effect crossover study, adverse events after single 20 mg amifampridine phosphate in healthy subjects (Examples 10, 11)
Type: in vivo
Experimental: This was a randomized, open-label, 2-treatment, 2-period crossover study with 44 completed subjects to assess the safety, tolerability, and the effect of food on the relative bioavailability of a single dose of amifampridine phosphate.
Safety was evaluated for all subjects who take at least one dose of 3,4-DAP. Safety was evaluated by recording the incidence of adverse events (AEs), physical examination, vital signs, concomitant medications, clinical laboratory assessments, and 12-lead electrocardiogram (ECG).
Analysis for the following safety parameters was carried out on the Safety Population: AEs which included all AEs, AEs by severity, drug-related AEs, deaths, SAEs, AEs leading to study discontinuation, and most frequent AEs, standard clinical laboratory tests, vital signs, ECG measurements, routine physical examinations, and prior and concomitant medications. The cut-off for frequency of AEs reported was determined based on the data. No formal statistical testing was performed for the safety analyses; only descriptive statistics were provided. Appropriate descriptive statistics for the safety data were determined using SAS Version 9.2.
AEs were coded according to the Medical Dictionary for Regulatory Activities (MedDRA; Version 13.0). […] The occurrence of AEs was assessed continuously from the time the subject signed the VID and consent. The reporting period for non-serious AEs was from the first dose to the final study visit. The investigator determined the severity of each event and the relationship of an AE to the IP and recorded it on the source documents and AE CRF. The nature, time of onset, duration, severity, and relationship to study drug was documented, including documentation of investigator assessment and review. All events were assessed to determine if the AE was serious.
The Investigator determined the severity of each event and the event was recorded on the source documents and AE CRF. A coding of “mild” meant there was no limitation of usual activities, “moderate” meant there was some limitation of usual activities, “severe” meant there was an inability to carry out usual activities.
The reporting period for AEs that met the criteria of an SAE began from the time of signing the VID and consent form through follow-up or early termination. […] Clinical Laboratory Assessments

Nc1ccncc1N.O=P(O)(O)O [amifampridine phosphate, 3,4-diaminopyridine phosphate]
44%: Paraesthesia Oral, drug-related AE: % of subjects (Female N=16)
4: Gastrointestinal Disorders Total, drug-related AE: events (Male N=31) | Gastrointestinal Disorders Total, drug-related AE: subjects (Male N=31) | Hypoaesthesia Oral, drug-related AE: subjects (Male N=31)
17: Nervous System Disorders Total, drug-related AE: subjects (Male N=31)
63%: Nervous System Disorders Total, drug-related AE: % of subjects (Female N=16)
42: Possibly or probably related AEs, Total: events (Female N=16)
42%: Paraesthesia Oral, drug-related AE: % of subjects (Male N=31)
3%: Abdominal Pain Upper, drug-related AE: % of subjects (Male N=31) | Abdominal Pain, drug-related AE: % of subjects (Male N=31) | Acne, drug-related AE: % of subjects (Male N=31) | All treatment emergent AEs, Severe: % of subjects (Male N=31) | Discontinued due to adverse events: % of subjects (Male N=31) | Dizziness, drug-related AE: % of subjects (Male N=31) | Feeling Hot, drug-related AE: % of subjects (Male N=31) | Hypoaesthesia Facial, drug-related AE: % of subjects (Male N=31) | Hypoaesthesia, drug-related AE: % of subjects (Male N=31)
41: Possibly or probably related AEs, Mild: events (Female N=16)
12: Paraesthesia Oral, drug-related AE: events (Female N=16) | Possibly or probably related AEs, Mild: subjects (Female N=16) | Possibly or probably related AEs, Total: subjects (Female N=16)
10%: General Disorders and Administration Site Conditions Total, drug-related AE: % of subjects (Male N=31)
57: All treatment emergent AEs, Mild: events (Male N=31)
19%: Headache, drug-related AE: % of subjects (Female N=16) | Paraesthesia, drug-related AE: % of subjects (Male N=31)
38%: Paraesthesia, drug-related AE: % of subjects (Female N=16)
0: Hypoaesthesia Facial, drug-related AE: subjects (Female N=16) | Possibly or probably related AEs, Severe: subjects (Female N=16) | Serious adverse events: subjects (Female N=16) | Skin and Subcutaneous Tissue Disorders Total, drug-related AE: subjects (Female N=16) | Abdominal Tenderness, drug-related AE: subjects (Male N=31) | All treatment emergent AEs, Moderate: subjects (Male N=31) | Constipation, drug-related AE: subjects (Male N=31) | Diarrhoea, drug-related AE: subjects (Male N=31) | Flushing, drug-related AE: subjects (Male N=31)
7: Paraesthesia Oral, drug-related AE: subjects (Female N=16)
18: All treatment emergent AEs, Mild: subjects (Male N=31) | Paraesthesia Oral, drug-related AE: events (Male N=31)
55%: Nervous System Disorders Total, drug-related AE: % of subjects (Male N=31)
3: Headache, drug-related AE: events (Female N=16) | Headache, drug-related AE: subjects (Female N=16) | Dysgeusia, drug-related AE: events (Male N=31) | General Disorders and Administration Site Conditions Total, drug-related AE: events (Male N=31) | General Disorders and Administration Site Conditions Total, drug-related AE: subjects (Male N=31)
75%: Possibly or probably related AEs, Mild: % of subjects (Female N=16) | Possibly or probably related AEs, Total: % of subjects (Female N=16)
5: Hypoaesthesia Oral, drug-related AE: events (Male N=31)
43: Nervous System Disorders Total, drug-related AE: events (Male N=31)
58%: All treatment emergent AEs, Mild: % of subjects (Male N=31)
1: Hypoaesthesia Oral, drug-related AE: events (Female N=16) | Hypoaesthesia Oral, drug-related AE: subjects (Female N=16) | Hypoaesthesia, drug-related AE: events (Female N=16) | Hypoaesthesia, drug-related AE: subjects (Female N=16) | Possibly or probably related AEs, Moderate: events (Female N=16) | Possibly or probably related AEs, Moderate: subjects (Female N=16) | Vascular Disorders Total, drug-related AE: events (Female N=16) | Vascular Disorders Total, drug-related AE: subjects (Female N=16) | Abdominal Pain Upper, drug-related AE: events (Male N=31) | Abdominal Pain Upper, drug-related AE: subjects (Male N=31) | Abdominal Pain, drug-related AE: events (Male N=31) | Abdominal Pain, drug-related AE: subjects (Male N=31) | Acne, drug-related AE: events (Male N=31) | Acne, drug-related AE: subjects (Male N=31) | All treatment emergent AEs, Severe: events (Male N=31) | All treatment emergent AEs, Severe: subjects (Male N=31) | Discontinued due to adverse events: events (Male N=31) | Discontinued due to adverse events: subjects (Male N=31) | Dizziness, drug-related AE: subjects (Male N=31) | Feeling Hot, drug-related AE: events (Male N=31) | Feeling Hot, drug-related AE: subjects (Male N=31) | Hypoaesthesia Facial, drug-related AE: events (Male N=31) | Hypoaesthesia Facial, drug-related AE: subjects (Male N=31) | Hypoaesthesia, drug-related AE: events (Male N=31) | Hypoaesthesia, drug-related AE: subjects (Male N=31)
11: Paraesthesia, drug-related AE: events (Male N=31)
13%: Nausea, drug-related AE: % of subjects (Female N=16) | Gastrointestinal Disorders Total, drug-related AE: % of subjects (Male N=31) | Hypoaesthesia Oral, drug-related AE: % of subjects (Male N=31)
13: Paraesthesia Oral, drug-related AE: subjects (Male N=31)
58: All treatment emergent AEs, Total: events (Male N=31)
31: Nervous System Disorders Total, drug-related AE: events (Female N=16)
(0%) [0]: Hypoaesthesia Facial, drug-related AE: % of subjects (Female N=16) | Hypoaesthesia Facial, drug-related AE: events (Female N=16) | Possibly or probably related AEs, Severe: % of subjects (Female N=16) | Possibly or probably related AEs, Severe: events (Female N=16) | Serious adverse events: % of subjects (Female N=16) | Serious adverse events: events (Female N=16) | Skin and Subcutaneous Tissue Disorders Total, drug-related AE: % of subjects (Female N=16) | Skin and Subcutaneous Tissue Disorders Total, drug-related AE: events (Female N=16) | Abdominal Tenderness, drug-related AE: % of subjects (Male N=31) | Abdominal Tenderness, drug-related AE: events (Male N=31) | All treatment emergent AEs, Moderate: % of subjects (Male N=31) | All treatment emergent AEs, Moderate: events (Male N=31) | Constipation, drug-related AE: % of subjects (Male N=31) | Constipation, drug-related AE: events (Male N=31) | Diarrhoea, drug-related AE: % of subjects (Male N=31) | Diarrhoea, drug-related AE: events (Male N=31) | Flushing, drug-related AE: % of subjects (Male N=31) | Flushing, drug-related AE: events (Male N=31)
10: Nervous System Disorders Total, drug-related AE: subjects (Female N=16)
6: Paraesthesia, drug-related AE: subjects (Female N=16)
19: All treatment emergent AEs, Total: subjects (Male N=31)
6%: Hypoaesthesia Oral, drug-related AE: % of subjects (Female N=16) | Hypoaesthesia, drug-related AE: % of subjects (Female N=16) | Possibly or probably related AEs, Moderate: % of subjects (Female N=16) | Vascular Disorders Total, drug-related AE: % of subjects (Female N=16) | Dysgeusia, drug-related AE: % of subjects (Male N=31) | Fatigue, drug-related AE: % of subjects (Male N=31) | Headache, drug-related AE: % of subjects (Male N=31) | Nausea, drug-related AE: % of subjects (Male N=31)
2: General Disorders and Administration Site Conditions Total, drug-related AE: events (Female N=16) | General Disorders and Administration Site Conditions Total, drug-related AE: subjects (Female N=16) | Nausea, drug-related AE: events (Female N=16) | Nausea, drug-related AE: subjects (Female N=16) | Dizziness, drug-related AE: events (Male N=31) | Dysgeusia, drug-related AE: subjects (Male N=31) | Fatigue, drug-related AE: events (Male N=31) | Fatigue, drug-related AE: subjects (Male N=31) | Headache, drug-related AE: events (Male N=31) | Headache, drug-related AE: subjects (Male N=31) | Nausea, drug-related AE: events (Male N=31) | Nausea, drug-related AE: subjects (Male N=31)
9: Paraesthesia, drug-related AE: events (Female N=16)
